Experimental data published in patent US9624255B2, “Carbohydrate-mediated tumor targeting” (Arizona Board of Regents, priority 2009, dated 2017).

Key:
[1] = tested on: A-549 lung carcinoma cells; assay: Visualization of cell association of fluorescent-disaccharide probe (fluorescence microscopy); format: cell-based; conditions: 1 fM, five minutes at 37° C.; A-549 compared with CCL-75 normal lung fibroblasts; FIG. 5
Protocol: In this case, we tethered a non-fluorescent pro-fluorophore, 5(6)-carboxyfluorescein diacetate (CFSE) onto the disaccharide of bleomycin to create a BLM-sugar probe. This fluorophore should only fluoresce when acted upon by the cell, where intracellular esterases cleave the acetate groups allowing for detectable fluorescence.
Both A-549 lung carcinoma cells and CCL-75 normal lung fibroblasts were seeded on 35 mm glass cover slips at a density of 2.5×10^5 cells before incubating 48 hours to allow attachment and growth. A total effective concentration of 1 fM of the fluorescent-sugar derivative (34) and 5(6)-carboxyfluorescein diacetate N-succinimidyl ester (CFSE) compounds were added to cover slips of each cell type before incubation for five minutes at 37° C. To prepare slides for microscopy viewing, cover slips were washed in PBS and 70% ethanol solution before fixation in Histochoice MB Fixative (Electron Microscopy Sciences, Hatfield, Pa.) for 15 minutes. Fixed cover slips were mounted onto glass slides for viewing. Using the Zeiss Axiovert 200M inverted microscope (Apotome camera), fluorescent images were acquired using DIC (at 35 ms exposure time) and appropriate fluorescence filter at 470-490 nm excitation (761 ms exposure time), 40× objective magnification.

[2] = tested on: MCF-7 (Breast carcinoma); assay: Microbubble attachment to cultured cells (flow chamber, inverted microscopy); format: cell-based
Protocol: To create BLM A5- and deglyco BLM A5-microbubbles, the synthesized biotinylated compounds (1, 2 and 32) were conjugated to Targestar^B Targeted Ultrasound Contrast Agents (Targeson). For each of these preparations, 400 μL of Coupling Reagent (Targeson) was added to 1.5 mL of conjugated Targestar^B microbubbles and incubated for 20 min at room temperature, with gentle agitation every 5 min. The resulting product was divided into two syringes, each rinsed with 1.75 mL of Infusion Buffer, and then centrifuged for 3 min (400×g, 10° C.). The infranatant was then drained to 1 mL. For each separate preparation, […] containing 50 nM of the biotinylated compound was added to one of the vials and both were incubated at room temperature for 20 min with gentle agitation every 5 min. To each sample was added 1.75 mL of Infusion Buffer before centrifugation for 3 min at 400×g (10° C.). This solution was then drained to 1.0 mL before recovery of the supernatant and repetition of the previous step. Finally, the supernatant was resuspended in Infusion Buffer to a final volume of 2.0 mL.
Attachment of the (biotinylated BLM A5-, biotinylated deglyco BLM A5-, and biotinylated BLM A5 disaccharide-conjugated) microbubbles to the cultured cancer cells was imaged using an inverted microscope Zeiss Axiovert 200M fitted with an AxioCam MRm camera. […]

Compound | Fluorescence of cells after exposure to compound [1] | Microbubble attachment to MCF-7 cells (in words) ([2]; MCF-7 breast carcinoma cells, compound conjugated to microbubble, FIG. 3/4) | Preferential attachment, tumor over normal cells ([2]; MCF-7 versus MCF-10A, conjugated onto the microbubble, FIG. 4a)
5(6)-carboxyfluorescein diacetate N-succinimidyl ester [CFSE, reference compound] | lack of marked fluorescence | – | –
NC(=O)O[C@@H]1[C@H](O)[C@@H](O[C@@H]2[C@H](OCCOCCNC(=O)CCCC[C@@H]3SC[C@@H]4NC(=O)N[C@@H]43)O[C@@H](CO)[C@@H](O)[C@@H]2O)O[C@H](CO)[C@H]1O [Compound 32, (2R,3S,4S,5R,6R)-2-((2R,3S,4S,5S,6S)-4,5-dihydroxy-6-(hydroxymethyl)-2-(2-(2-(5-((3aS,4S,6aR)-2-oxohexahydro-1H-thieno[3,4-d]imidazol-4-yl)pentanamido)ethoxy)ethoxy)tetrahydro-2H-pyran-3-yloxy)-3,5-dihydroxy-6-(hydroxymethyl)tetrahydro-2H-pyran-4-yl Carbamate] | – | greater attachment than biotinylated bleomycin A5 | preferential attachment to MCF-7 tumor cells over MCF-10A cells
CC(=O)Oc1ccc2c(c1)Oc1cc(OC(C)=O)ccc1C21OC(=O)c2cc(C(=O)NCCOCCO[C@@H]3O[C@@H](CO)[C@@H](O)[C@H](O)[C@@H]3O[C@H]3O[C@H](CO)[C@@H](O)[C@H](OC(N)=O)[C@@H]3O)ccc21 [Compound 34, (4,5)-(2-(2-((2R,3S,4S,5S,6S)-3-((2R,3S,4S,5R,6R)-4-(Carbamoyloxy)-3,5-dihydroxy-6-(hydroxymethyl)tetrahydro-2H-pyran-2-yloxy)-4,5-dihydroxy-6-(hydroxymethyl)tetrahydro-2H-pyran-2-yloxy)ethoxy)ethylcarbamoyl)-3-oxo-3H-spiro[isobenzofuran-1,9′-xanthene]-3′,6′-diyl Diacetate] | highest fluorescence only in the tumor cell line | – | –
